Test [1] deals with Pseudomonas aeruginosa. Description: Antimicrobial activity against Pseudomonas aeruginosa PAO1 assessed as inhibition of cell viability at 87.5 uM after 18 hrs by spectrophotometry. Conditions: PAO1, 18 h. In kind it is functional.
For test [2], the system named is Pseudomonas aeruginosa. Nature of the test: Antimicrobial activity against Pseudomonas aeruginosa PAO1 assessed as inhibition of cell viability after 18 hrs by spectrophotometry. In kind it is functional, organism-based. As to conditions: PAO1, 18 h.
Test [3] relates to Staphylococcus aureus. Nature of the test: Antimicrobial activity against Staphylococcus aureus 01A1095 assessed as inhibition of cell viability at 175 uM after 18 hrs by spectrophotometry. In kind it is functional. As to conditions: 01A1095, 18 h.
For test [4], the system named is Staphylococcus aureus. Nature of the test: Antimicrobial activity against Staphylococcus aureus 01A1095 assessed as inhibition of cell viability at 87.5 uM after 18 hrs by spectrophotometry. As to conditions: 01A1095, 18 h. In kind it is functional.
Test [5] deals with Pseudomonas aeruginosa. Description: Antimicrobial activity against Pseudomonas aeruginosa PAO1 assessed as inhibition of cell viability at 175 uM after 18 hrs by spectrophotometry. In kind it is functional. As to conditions: PAO1, 18 h.
The subject of test [6] is Staphylococcus aureus. Description: Antimicrobial activity against Staphylococcus aureus 01A1095 assessed as inhibition of cell viability after 18 hrs by spectrophotometry. As to conditions: 01A1095, 18 h. In kind it is functional, organism-based.
The test system of test [7] is Staphylococcus aureus. Description: Antimicrobial activity against Staphylococcus aureus 01A1095 assessed as inhibition of cell viability at 350 uM after 18 hrs by spectrophotometry. In kind it is functional, organism-based.
In test [8] the test system is Pseudomonas aeruginosa. Description: Antimicrobial activity against Pseudomonas aeruginosa PAO1 assessed as inhibition of cell viability at 350 uM after 18 hrs by spectrophotometry. In kind it is functional, organism-based.

In brackets after ≈: the same amount, converted by molar mass. Activity calls are given as the source filed them. No cut-off for these calls is given here.

Take `COc1c(Br)cc(/C=C/C(=O)NCCCNCCCCN)cc1Br` [IANTHELLIFORMISAMINE B]: the inhibition – broadly, the share of the control response that was lost under treatment – at 87.5 µM in test [1] stood at 80%.

In the case of `COc1c(Br)cc(/C=C/C(=O)NCCCNCCCCNCCCN)cc1Br` [IANTHELLIFORMISAMINE A], in test [2], the IC50 (commonly the concentration that gives 50% inhibition) turned out to be 6.8 µM and the MIC – broadly, the least concentration at which growth counts as inhibited – came to 35 µM (≈ 18.2 µg/mL). The inhibition at 175 µM in test [3] was determined as 77%.

As for `COC1=C(Br)[C@H](O)[C@@]2(C=C1Br)CC(C(=O)NCCCOc1c(Br)cc(CCN)cc1Br)=NO2` [ARAPLYSILLIN I], in test [4], the inhibition at 87.5 µM came out at 60%. Also, the inhibition at 175 µM in test [5] is 65%.

For `COc1c(Br)cc(/C=C/C(=O)NCCCNCCCCNCCCNC(=O)/C=C/c2cc(Br)c(OC)c(Br)c2)cc1Br` [IANTHELLIFORMISAMINE C], in test [2], the half-inhibitory concentration (IC50) was 8.9 µM and the MIC amounted to 17.5 µM (≈ 14.7 µg/mL). In test [6], the 50% inhibitory concentration (IC50) came to 4.1 µM and the MIC was 8.75 µM (≈ 7.33 µg/mL).

On to `CN(C)CCCOc1c(Br)cc(CCN(C)C)cc1Br`, for which the inhibition entry in test [7] and in test [8] was “inactive” each time.

As to `O=C(O)c1cn(C2CC2)c2cc(N3CCNCC3)c(F)cc2c1=O` [CIPROFLOXACIN], the IC50 in test [2] came out at 0.038 µM; in test [6], 125 µM.
